According to ChEMBL document CHEMBL1145013, “Studies on the mechanisms of activation of indolequinone phosphoramidate prodrugs” (J Med Chem, 2003):

How the values were obtained:
[1] = Half life in presence of sodium dimethyldithiocarbamate; type: ADME; conditions: solution containing sodium dimethyldithiocarbamate
[2] = Half life in presence of glutathione; type: ADME; conditions: solution containing glutathione

| Structure (SMILES) | half-life [1] [min] | half-life [2] [min] |
| --- | --- | --- |
| COC1=CC(=O)c2c(c(COP(N)(=O)N3CCOCC3)cn2C)C1=O (stereo not drawn) | 34 | 83 |
| COC1=CC(=O)c2c(c(COP(N)(=O)N(CCBr)CCBr)cn2C)C1=O (stereo not drawn) | 14 | 35 |
| COC1=CC(=O)c2c(cc(COP(N)(=O)N(CCBr)CCBr)n2C)C1=O (stereo not drawn) | 26 | 653 |
| COC1=CC(=O)c2c(cc(COP(N)(=O)N3CCOCC3)n2C)C1=O (stereo not drawn) | 659 | 716 |
